The values that follow come from patent publication US4021421A, “Benzodiazepine derivatives” (Richter Gedeon Vegyeszeti Gyar Rt., priority 1974, dated 1977).

One assay deals with hexobarbital oxidase. As to the kind of experiment: in vivo hexobarbital oxidase activity: hexobarbital sleeping time in rats (enzyme induction). Details: species or system male Wistar rats. The conditions noted are these: 40 mg./kg. oral; for Difference % (period of sleep vs. control): 24 hours, vs. control group, difference greater than 25% regarded as biologically significant; for Period of sleep, min. ± standard error: hexobarbital sodium 40 mg./kg. i.v. 24 hours later, control 28.50 ± 3.12 min. The method, then: The enzyme-inducing effects of the new compounds were examined under in vivo conditions by determining the hexobarbital oxidase activity. The active agents of the formula (I) were administered to male Wistar rats weighing 50 to 60 g. in oral dosages of 40 mg./kg. The effect appears 24 hours after the administration of the enzyme-inducing substance. At that time the inactivation rate of hexobarbital was determined by administering intravenously 40 mg./kg. of hexobarbital sodium into the animals and measuring the time elapsed between the administration and the reappearance of the righting reflex. The period of sleep observed for the animals treated with the new compounds was compared to that observed in the control group (the animals belonging to the control group were treated with carrier substance only).
24 Hours after the administration of the enzyme-inducing compounds the in vivo inactivation of hexobarbital accelerates, which is evidenced by the shortening of the period of sleep. The results were expressed as percentage differences with respect to the controls. On the basis of the preliminary experiments a difference greater than 25% was regarded to be biologically significant.

The subject of another assay is hexobarbital. As to the kind of experiment: biological half life-time of hexobarbital (UV spectrophotometry of plasma). The following applies: half-life of hexobarbital in treated rats, control 38 min.

Molecules are shown by their SMILES.

Take `CN1C(=O)CN(N=O)C(c2ccccc2)c2cc(Cl)ccc21` (stereo not drawn) [Example 1, 1-Methyl-4-nitroso-5-phenyl-7-chloro-1,3,4,5-tetrahydro-2H-1,4-benzodiazepine-2-one]: in the assay on hexobarbital oxidase, the “Difference % (period of sleep vs. control)” value (from here on “Difference %”) is -42% and the “Period of sleep, min. ± standard error” value worked out at 16.53 ± 1.93 min.
Turning to `O=NN1CC(=O)Nc2ccc([N+](=O)[O-])cc2C1c1ccccc1` (stereo not drawn) [Example 2, 4-Nitroso-5-phenyl-7-nitro-1,3,4,5-tetrahydro-2H-1,4-benzodiazepine-2-one], in the assay with hexobarbital oxidase, the “Difference %” value is on record as -51% and the “Period of sleep, min. ± standard error” value came out at 13.97 ± 2.10 min.
The like results for `CN1C(=O)CN(N)C(c2ccccc2)c2cc(Cl)ccc21` (stereo not drawn) [Example 3, 1-Methyl-4-amino-5-phenyl-7-chloro-1,3,4,5-tetrahydro-2H-1,4-benzodiazepine-2-one] were, in that order, -35% and 18.57 ± 2.06 min.
On to `CN1C(=O)CN(N=Cc2ccccc2)C(c2ccccc2)c2cc(Cl)ccc21` (stereo not drawn) [Example 5, 1-Methyl-4-benzalamino-5-phenyl-7-chloro-1,3,4,5-tetrahydro-2H-1,4-benzodiazepine-2-one], for which, in the assay on hexobarbital oxidase, the “Difference %” value is reported as -58% and the “Period of sleep, min. ± standard error” value was 11.96 ± 1.38 min. Moreover, the “T1/2 (biological half life-time of hexobarbital)” value in the assay on hexobarbital was determined as 26 min.
As for `CN1C(=O)CN(N=Cc2ccc(O)cc2)C(c2ccccc2)c2cc(Cl)ccc21` (stereo not drawn) [Example 10, 1-Methyl-4-(p-hydroxy-benzalamino)-5-phenyl-7-chloro-1,3,4,5-tetrahydro-2H-1,4-benzodiazepine-2-one], in the assay with hexobarbital oxidase, the “Difference %” value is -41% and the “Period of sleep, min. ± standard error” value worked out at 16.82 ± 1.84 min.
The like results for `CN1C(=O)CN(NC(=O)CCl)C(c2ccccc2)c2cc(Cl)ccc21` (stereo not drawn) [Example 12, 1-Methyl-4-chloroacetamino-5-phenyl-7-chloro-1,3,4,5-tetrahydro-2H-1,4-benzodiazepine-2-one] were, in that order, -33% and 19.10 ± 2.28 min.
With `CC(=O)NN1CC(=O)N(C)c2ccc(Cl)cc2C1c1ccccc1` (stereo not drawn) [Example 13, 1-Methyl-4-acetylamino-5-phenyl-7-chloro-1,3,4,5-tetrahydro-2H-1,4-benzodiazepine-2-one], in the assay on hexobarbital oxidase, the “Difference %” value was -29% and the “Period of sleep, min. ± standard error” value was determined as 20.24 ± 2.17 min.
